This is an account of results in patent US20030023104A1, “Therapeutic compound - fatty acid conjugates” (COMMONWEALTH SCIENTIFIC AND INDUSTRIAL RESEARCH ORGANISATION, priority 1995, published 2003).

The test system of one data set is coordination of mice. As to the kind of experiment: Coordination on Rotor-Rod. In kind it is in vivo, Quackenbush Strain mice. Conditions: 1 and 4 hr after ip injection, 1.6 rpm. On the procedure: Coordination of mice after treatment was also assessed by placing treated animals on a Rotor-Rod at 1.6 rpm. The ability of animals to stay on the rod was assessed.

Data set [1] has as its system pain response on heated plate. Particulars: for Time Response ± SEM: doses 5, 10 & 20 mg Morphine/kg pooled, 12 mice per group; for Behaviour Score ± SEM: pooled doses, panel score 0 (agitated) to 3 (placid).
Protocol: The biological activities of Morphine (Mo) and fatty acid conjugates were tested in an antinociceptive assay using mice. Various doses and duration of pain-killing effect of the drugs were examined.
Quackenbush Strain mice (male, 5-week-old, approximately 30 g live weight) were used for the experiments. Animals were given free access to food and water prior to and during the experiment. Animals were divided into groups of 12 and individually weighed. The mean weight for each group was calculated. Mice were then placed on a metal block heated to 50° C. and the time taken for the animals to show signs of discomfort was measured (baseline response: control). Mice were then injected intraperitoneally (ip) with various doses of Morphine or Morphine-fatty acid conjugate. Morphine was made up in a H2O solution and Morphine-fatty acids were made up in an emulsion containing 10% glycerylmonooleate, 21% Miglyol, 6% ethanol, 24% Tween 80 (33%) and 39% H2O. 0.2 ml of appropriate solution was injected ip into each mouse. At different times after injection, responses on the heated plate were measured. In each experiment 3 doses of Morphine and Morphine-fatty acid and 2 time points were tested. A single mouse was used for each treatment and the entire experiment repeated at least 3 times. […] Members of the panel were asked to score mice behaviour according to the following key:
0=agitated mouse, distressed
1=showing mild discomfort
2=not agitated or uncomfortable but still alert
3=placid. docile; not at all worried.
Results from the panel were averaged.
A further data set has as its system HIV-I MN. The data set is described as follows: Anti HIV activity, Ag gp120 production in infected C8166 cells. In kind it is cell-based. Here is the method: (§1) The anti-HIV activities of AZT-Suc-GTP1 and AZT-Suc-GTP2 were also tested. Infected cells were incubated for 5 days with compound. Compounds were dissolved in DMSO and 5-fold dilutions were used. The following parameters were measured: syncytia formation, virus antigen gp120 production, cell survival. Cytotoxicity is also measured in uninfected cells.
(§2) C8166 (human T-lymphoblastoid cells) infected with HIV-I MN
(§3) EC50=concentration which reduces Ag gp120by 50% in infected cell cultures.

The subject of another data set is HIV-I U4550. The data set is described as follows: Anti HIV activity, Ag gp120 production in infected JM cells. The class given is cell-based. On the procedure:
as §1
(§4) JM (semi mature human T-cell from lymphoblastoid leukemia) infected with HIV-I U4550
as §3

Data set [2] deals with C8166 (human T-lymphoblastoid cells). As to the kind of experiment: Cell growth (cytotoxicity) in C8166 cells. The class given is cell-based. On the procedure:
as §1, §2
(§5) IC50=concentration of drug which reduces cell growth by 50%.

The subject of data set [3] is peripheral blood mononuclear cells (PBMC). As to the kind of experiment: Cytotoxicity of AZT and conjugates, MTS viability assay, PBMC. In kind it is cell-based, human. Conditions: 40 h, drug in ethanol. Here is the method: (§6) The cytotoxicity of AZT and AZT-fatty acid conjugates (AZT-Suc-GTP1P2 and P3) was tested in vitro with JURKAT (acute T cell human leukemia) and peripheral blood mononuclear cells (PBMC).
Human peripheral blood mononuclear cells (PBMC) were isolated from three healthy donors by centrifugation on Ficoll-Paque (Pharmacia). Cells were seeded into a 96-well plates at a density of 2×10^5 cells/200 ul complete RPMI ± drug and cultured for 40 h.
(§7) Each concentration was tested in at least 3 wells.
For orientation: Tetrazolium dyes change colour on reduction, which living cells bring about.

Data set [4] has as its system JURKAT (acute T cell human leukemia). As to the kind of experiment: Cytotoxicity of AZT and conjugates, MTS viability assay, JURKAT. The class given is cell-based. Here is the method: as §6, §7
The test system of data set [5] is JM (semi mature human T-cell from lymphoblastoid leukemia). As to the kind of experiment: Cell growth (cytotoxicity) in JM cells. The class given is cell-based. Here is the method:
as §1, §4, §5

Where [6] appears, read: 5 days, read-out: IC50 (concentration of drug which reduces cell growth by 50%).

Structures are written as SMILES. Where two headings read alike, the source gives them in different places.

Take `CN1CC[C@]23c4c5ccc(O)c4O[C@H]2[C@@H](O)C=C[C@H]3[C@H]1C5` [Morphine, reference compound]: the “ability to stay on the Rotor-Rod (coordination)” value in the data set on coordination of mice is reported as “able to stay on the rotor-rod”. Besides, the mean time response was 23.2 s in data set [1] (1 mg Mo/kg ip, 4 hr, standard error of each mean ±2.86); 20.8 s in data set [1] (1 mg Mo/kg ip, 6 hr, standard error of each mean ±2.86); 27.8 (4) sec in data set [1] (5 mg Mo/kg ip, 1 hr); 23.9 (8) sec in data set [1] (5 mg Mo/kg ip, 4 hr); 20.0 (4) sec in data set [1] (5 mg Mo/kg ip, 6 hr); 23.0 s in data set [1] (10 mg Mo/kg ip, 4 hr, standard error of each mean ±2.86). Besides, in data set [1] (10 mg Mo/kg ip, 6 hr, standard error of each mean ±2.86), the mean time response was determined as 24.2 s. Moreover, the figures for the “Time Response ± SEM” value in data set [1] (1 hr after ip injection) and in data set [1] (4 hr after ip injection) were 32.7 ± 2.74 s and 28.2 ± 2.74 s, respectively. Moreover, the “Behaviour Score ± SEM” value in data set [1] (1 hr after ip injection) stood at 2.46 ± 0.166; in data set [1] (4 hr after ip injection) it was 1.93 ± 0.166.
As for `CCCCCCCCCCCCCCCC(=O)OCC(CO)(CO)NC(=O)CNC(=O)CCC(=O)OC[C@H]1O[C@@H](n2cc(C)c(=O)[nH]c2=O)C[C@@H]1N=[N+]=[N-]` [AZT-Suc-GTP1], the “Ratio of AZT: Conjugate EC50” value in the data set on HIV-I MN (C8166 cell line) was determined as 1.3; in the data set with HIV-I U4550 (JM cell line) it was 12.5. Further, the EC50 stood at 0.012 µM with HIV-I MN (C8166 cells infected with HIV-I MN, 5 days, read-out: EC50 (concentration which reduces Ag gp120 by 50% in infected cell cultures)) and 8 µM in the data set on HIV-I U4550 (JM cells infected with HIV-I U4550, 5 days, read-out: EC50 (concentration which reduces Ag gp120 by 50% in infected cell cultures)). Further, the “fold more cytotoxic than AZT” value in data set [2] and in data set [5] was 50 in each case. For the same molecule, the IC50 in data set [2] (setting [6]) turned out to be 100 µM; in data set [3], 26.7 µM; in data set [4] (JURKAT, 64 h, drug in ethanol, MTS), 43 µM; in data set [5] (setting [6]), 100 µM. Besides, in data set [4] (JURKAT cells, versus AZT), the “times more cytotoxic than the parent drug” value was 40.
For the molecule `CCCCCCCCCCCCCCCC(=O)OCC(CO)(COC(=O)CCCCCCCCCCCCCCC)NC(=O)CNC(=O)CCC(=O)Oc1ccc2c3c1O[C@H]1[C@@H](O)C=C[C@H]4[C@@H](C2)N(C)CC[C@@]341` [Morphine-Suc-GTP2, Morphine-Suc-Gly-Tris-Dipalmitate], the “ability to stay on the Rotor-Rod (coordination)” value in the data set with coordination of mice is recorded as “able to stay on the rotor-rod”. Besides, the “mean time response” value is on record as 24.0 (4) sec in data set [1] (5 mg Mo/kg ip, 1 hr); 30.5 (8) sec in data set [1] (5 mg Mo/kg ip, 4 hr); 27.8 (4) sec in data set [1] (5 mg Mo/kg ip, 6 hr). The results for the “Time Response ± SEM” value in data set [1] (1 hr after ip injection) and in data set [1] (4 hr after ip injection) were 26.7 ± 2.74 s and 31.2 ± 2.74 s, respectively. In addition, the “Behaviour Score ± SEM” value in data set [1] (1 hr after ip injection) stood at 2.34 ± 0.166; in data set [1] (4 hr after ip injection), 2.35 ± 0.166. Moreover, the “duration of pain-killing effect compared with morphine” value in data set [1] (ip injection) was “longer lasting pain-killing effect than unconjugated morphine”.
